The values below come from patent publication US9340590B2 (priority 2011, dated 2016).

What all share (assay): cell-based
One test addresses hNav1.3 (Homo sapiens, UniProt Q9NY46). The conditions noted are these: IonWorks Quattro, Use; read-out: IWQ Use Nav1.3. (In general: The patch-clamp technique gives a direct electrical read-out from membranes.)
Another test concerns the target hNav1.7 (Homo sapiens, UniProt Q15858). It counts as cell-based.
The next test addresses hNav1.5 (Homo sapiens, UniProt Q14524). The conditions noted are these: IonWorks Quattro, Use; read-out: IWQ Use Nav1.5.
Setting [1] is: IonWorks Quattro, Use, read-out: IWQ Use Nav1.7.

Read-outs that look alike come from different tables or passages of the source. Positions of bridges follow the written chain, without caps; N, C: chain ends. Residues, ends and D or L forms follow the SMILES beside them.

hNav1.5, sequence (Q14524 whole entry, looked up): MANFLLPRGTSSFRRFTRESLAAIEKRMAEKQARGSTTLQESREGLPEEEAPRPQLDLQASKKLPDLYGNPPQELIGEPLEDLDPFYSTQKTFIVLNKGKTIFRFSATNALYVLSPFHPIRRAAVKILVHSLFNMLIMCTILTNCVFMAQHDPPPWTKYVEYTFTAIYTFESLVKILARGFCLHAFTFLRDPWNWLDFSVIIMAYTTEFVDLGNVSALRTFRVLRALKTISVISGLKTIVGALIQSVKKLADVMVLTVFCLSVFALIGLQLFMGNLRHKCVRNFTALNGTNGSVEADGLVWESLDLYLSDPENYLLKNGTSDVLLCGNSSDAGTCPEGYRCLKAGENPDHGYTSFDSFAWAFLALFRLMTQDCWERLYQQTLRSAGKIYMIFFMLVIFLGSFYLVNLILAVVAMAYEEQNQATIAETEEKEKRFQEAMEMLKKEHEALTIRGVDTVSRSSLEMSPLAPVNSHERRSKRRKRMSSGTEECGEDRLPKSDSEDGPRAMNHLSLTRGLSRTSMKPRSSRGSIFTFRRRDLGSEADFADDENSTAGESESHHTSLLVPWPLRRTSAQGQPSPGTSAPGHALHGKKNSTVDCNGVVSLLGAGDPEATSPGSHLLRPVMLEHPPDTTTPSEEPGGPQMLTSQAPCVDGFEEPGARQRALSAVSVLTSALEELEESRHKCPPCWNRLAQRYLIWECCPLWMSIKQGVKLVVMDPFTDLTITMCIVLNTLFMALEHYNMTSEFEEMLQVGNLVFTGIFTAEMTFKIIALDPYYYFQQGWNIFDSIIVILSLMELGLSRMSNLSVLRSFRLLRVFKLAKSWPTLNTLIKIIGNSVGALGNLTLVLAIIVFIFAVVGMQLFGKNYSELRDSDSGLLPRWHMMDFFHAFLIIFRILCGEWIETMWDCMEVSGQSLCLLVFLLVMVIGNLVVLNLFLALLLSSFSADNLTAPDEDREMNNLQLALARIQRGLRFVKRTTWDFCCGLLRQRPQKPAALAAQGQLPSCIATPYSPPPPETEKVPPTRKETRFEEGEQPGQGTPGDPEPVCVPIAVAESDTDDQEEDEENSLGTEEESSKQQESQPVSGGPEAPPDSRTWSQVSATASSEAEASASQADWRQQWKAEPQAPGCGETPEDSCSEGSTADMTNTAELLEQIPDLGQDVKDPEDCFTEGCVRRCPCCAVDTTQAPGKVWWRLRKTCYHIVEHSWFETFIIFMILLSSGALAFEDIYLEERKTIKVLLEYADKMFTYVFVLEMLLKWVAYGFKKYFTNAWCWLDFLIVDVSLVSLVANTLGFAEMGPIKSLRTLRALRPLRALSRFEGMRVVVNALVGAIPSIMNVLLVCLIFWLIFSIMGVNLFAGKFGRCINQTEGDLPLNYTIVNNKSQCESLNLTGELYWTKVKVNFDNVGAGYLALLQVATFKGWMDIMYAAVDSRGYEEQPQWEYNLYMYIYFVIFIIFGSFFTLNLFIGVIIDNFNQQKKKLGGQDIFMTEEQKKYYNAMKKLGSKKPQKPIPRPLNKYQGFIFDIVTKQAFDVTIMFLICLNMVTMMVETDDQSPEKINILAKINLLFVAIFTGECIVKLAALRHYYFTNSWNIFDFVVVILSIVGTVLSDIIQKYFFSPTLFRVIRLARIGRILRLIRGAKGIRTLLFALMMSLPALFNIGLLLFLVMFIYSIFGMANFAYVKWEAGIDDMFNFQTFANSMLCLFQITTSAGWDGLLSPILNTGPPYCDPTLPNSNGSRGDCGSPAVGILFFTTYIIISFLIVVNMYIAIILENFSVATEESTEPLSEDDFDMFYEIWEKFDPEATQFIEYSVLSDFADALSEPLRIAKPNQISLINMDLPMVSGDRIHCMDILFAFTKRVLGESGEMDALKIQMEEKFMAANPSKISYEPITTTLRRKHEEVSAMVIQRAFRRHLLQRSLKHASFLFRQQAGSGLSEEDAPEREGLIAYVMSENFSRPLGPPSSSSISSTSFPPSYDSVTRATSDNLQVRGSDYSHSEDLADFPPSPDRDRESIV
hNav1.3, sequence (Q9NY46 whole entry, looked up): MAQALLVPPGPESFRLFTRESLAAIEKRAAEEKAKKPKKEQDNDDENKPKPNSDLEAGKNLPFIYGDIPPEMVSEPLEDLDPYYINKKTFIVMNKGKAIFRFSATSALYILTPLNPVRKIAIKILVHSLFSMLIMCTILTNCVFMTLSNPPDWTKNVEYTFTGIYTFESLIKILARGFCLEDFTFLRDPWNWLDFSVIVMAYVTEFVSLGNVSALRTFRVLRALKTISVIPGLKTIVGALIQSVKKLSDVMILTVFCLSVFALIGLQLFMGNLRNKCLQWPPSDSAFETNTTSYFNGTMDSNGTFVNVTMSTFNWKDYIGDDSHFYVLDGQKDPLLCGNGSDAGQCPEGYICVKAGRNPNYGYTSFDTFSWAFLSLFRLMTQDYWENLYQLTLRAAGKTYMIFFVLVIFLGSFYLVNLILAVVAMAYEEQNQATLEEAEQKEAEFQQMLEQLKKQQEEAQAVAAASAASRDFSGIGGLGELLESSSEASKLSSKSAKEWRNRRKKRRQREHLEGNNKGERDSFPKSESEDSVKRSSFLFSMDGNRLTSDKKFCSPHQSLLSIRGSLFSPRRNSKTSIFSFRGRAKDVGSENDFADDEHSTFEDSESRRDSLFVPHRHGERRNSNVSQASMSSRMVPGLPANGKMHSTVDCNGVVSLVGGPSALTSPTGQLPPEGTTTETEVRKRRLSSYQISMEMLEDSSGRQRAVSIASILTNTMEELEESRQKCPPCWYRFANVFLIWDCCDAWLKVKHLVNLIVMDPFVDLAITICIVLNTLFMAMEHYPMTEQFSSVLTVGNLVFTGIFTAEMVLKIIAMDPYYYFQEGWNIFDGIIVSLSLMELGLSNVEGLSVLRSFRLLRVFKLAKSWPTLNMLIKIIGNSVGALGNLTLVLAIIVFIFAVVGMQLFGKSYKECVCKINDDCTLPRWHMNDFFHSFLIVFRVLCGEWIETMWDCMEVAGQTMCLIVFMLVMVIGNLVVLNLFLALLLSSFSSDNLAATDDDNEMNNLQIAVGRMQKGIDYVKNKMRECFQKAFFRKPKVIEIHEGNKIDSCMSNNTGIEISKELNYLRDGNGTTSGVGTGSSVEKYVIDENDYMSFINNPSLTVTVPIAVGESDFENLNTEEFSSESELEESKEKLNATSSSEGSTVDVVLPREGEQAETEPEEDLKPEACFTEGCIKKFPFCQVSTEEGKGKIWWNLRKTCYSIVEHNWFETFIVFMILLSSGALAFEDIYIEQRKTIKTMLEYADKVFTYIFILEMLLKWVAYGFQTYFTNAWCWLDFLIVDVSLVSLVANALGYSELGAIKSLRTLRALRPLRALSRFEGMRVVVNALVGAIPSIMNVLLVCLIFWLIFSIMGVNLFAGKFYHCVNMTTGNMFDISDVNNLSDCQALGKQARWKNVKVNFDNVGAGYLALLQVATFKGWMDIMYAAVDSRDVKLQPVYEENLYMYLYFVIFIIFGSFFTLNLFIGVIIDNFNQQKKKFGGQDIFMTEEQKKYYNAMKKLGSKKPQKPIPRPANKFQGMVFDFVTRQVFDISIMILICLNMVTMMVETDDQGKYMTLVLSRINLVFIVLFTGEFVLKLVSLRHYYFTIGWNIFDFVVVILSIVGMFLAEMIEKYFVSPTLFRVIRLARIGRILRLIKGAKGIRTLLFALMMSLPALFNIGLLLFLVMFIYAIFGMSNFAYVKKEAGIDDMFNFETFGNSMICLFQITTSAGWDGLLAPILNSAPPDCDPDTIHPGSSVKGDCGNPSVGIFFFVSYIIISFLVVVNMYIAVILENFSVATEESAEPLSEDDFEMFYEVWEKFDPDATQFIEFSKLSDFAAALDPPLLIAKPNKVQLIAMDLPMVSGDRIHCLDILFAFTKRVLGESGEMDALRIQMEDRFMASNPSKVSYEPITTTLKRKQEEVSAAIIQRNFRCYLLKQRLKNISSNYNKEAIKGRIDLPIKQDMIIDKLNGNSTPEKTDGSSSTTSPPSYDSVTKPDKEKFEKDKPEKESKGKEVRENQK

In the case of `CC[C@H](C)[C@@H]1NC(=O)[C@@H]2CSSC[C@@H]3NC(=O)[C@H](C(C)C)NC(=O)[C@H](CC(C)C)NC(=O)[C@H](CC(N)=O)NC(=O)[C@@H]4CCCN4C(=O)[C@H](CCCNC(=N)N)NC(=O)[C@H](CSSC[C@H](NC(=O)[C@@H](N)CC(=O)O)C(=O)N[C@@H](CC(C)C)C(=O)NCC(=O)N[C@@H](Cc4ccccc4)C(=O)N[C@@H](CCSC)C(=O)N[C@@H](CCCNC(=N)N)C(=O)N[C@@H](CCCCN)C(=O)N2)NC(=O)[C@H](CSSC[C@@H](C(=O)N[C@@H](CCCCN)C(=O)N[C@@H](Cc2ccc(O)cc2)C(=O)N[C@H](C(=O)N[C@@H](Cc2ccccc2)C(N)=O)C(C)C)NC(=O)[C@H](Cc2c[nH]c4ccccc24)NC(=O)[C@H](CCCCN)NC(=O)[C@H](Cc2cnc[nH]2)NC(=O)[C@H]([C@@H](C)O)NC(=O)[C@H](CCCNC(=N)N)NC(=O)[C@H](CO)NC3=O)NC(=O)[C@H](CCCCN)NC(=O)[C@H](CC(=O)O)NC(=O)[C@H](C)NC(=O)[C@H](CC(=O)O)NC(=O)[C@@H]2CCCN2C1=O` [compound 5] (H-DCLGFMRKCIPDADKCCRPNLVCSRTHKWCKYVF-NH2; disulfide 2-17, 9-23, 16-30), the IC50 was found to be 160 nM at hNav1.3, 170 nM at hNav1.7 (setting [1]) and 8150 nM on hNav1.5.
As for `CC[C@H](C)[C@@H]1NC(=O)[C@@H]2CSSC[C@@H]3NC(=O)[C@H](C(C)C)NC(=O)[C@H](CC(C)C)NC(=O)[C@H](CC(N)=O)NC(=O)[C@@H]4CCCN4C(=O)[C@H](CCCNC(=N)N)NC(=O)[C@H](CSSC[C@H](NC(=O)[C@@H](N)CC(=O)O)C(=O)N[C@@H](CC(C)C)C(=O)NCC(=O)N[C@@H](Cc4ccccc4)C(=O)N[C@@H](CCSC)C(=O)N[C@@H](CCCNC(=N)N)C(=O)N[C@@H](CCCCN)C(=O)N2)NC(=O)[C@H](CSSC[C@@H](C(=O)N[C@@H](CCCCN)C(=O)N[C@@H](Cc2ccc(O)cc2)C(=O)N[C@H](C(=O)N[C@@H](Cc2ccccc2)C(N)=O)C(C)C)NC(=O)[C@H](Cc2c[nH]c4ccccc24)NC(=O)[C@H](CCCCN)NC(=O)[C@H](Cc2cnc[nH]2)NC(=O)[C@H]([C@@H](C)O)NC(=O)[C@H](CCCNC(=N)N)NC(=O)[C@H](CO)NC3=O)NC(=O)[C@H](C)NC(=O)[C@H](CC(=O)O)NC(=O)[C@H](CC(N)=O)NC(=O)[C@H](CC(=O)O)NC(=O)[C@@H]2CCCN2C1=O` [compound 6] (H-DCLGFMRKCIPDNDACCRPNLVCSRTHKWCKYVF-NH2; disulfide 2-17, 9-23, 16-30), the IC50 is 190 nM on hNav1.3, 220 nM on hNav1.7 (setting [1]) and 9640 nM at hNav1.5.
For `CC[C@H](C)[C@@H]1NC(=O)[C@@H]2CSSC[C@@H]3NC(=O)[C@H](C(C)C)NC(=O)[C@H](CC(C)C)NC(=O)[C@H](CC(N)=O)NC(=O)[C@@H]4CCCN4C(=O)[C@H](CCCNC(=N)N)NC(=O)[C@H](CSSC[C@H](NC(=O)[C@@H](N)CC(=O)O)C(=O)N[C@@H](CC(C)C)C(=O)NCC(=O)N[C@@H](Cc4ccccc4)C(=O)N[C@@H](CCSC)C(=O)N[C@@H](CCCNC(=N)N)C(=O)N[C@@H](CCCCN)C(=O)N2)NC(=O)[C@H](CSSC[C@@H](C(=O)N[C@@H](CCCCN)C(=O)N[C@@H](Cc2ccc(O)cc2)C(=O)N[C@H](C(=O)N[C@@H](Cc2ccccc2)C(N)=O)C(C)C)NC(=O)[C@H](Cc2c[nH]c4ccccc24)NC(=O)[C@H](CCCCN)NC(=O)[C@H](Cc2cnc[nH]2)NC(=O)[C@H]([C@@H](C)O)NC(=O)[C@H](C)NC(=O)[C@H](CO)NC3=O)NC(=O)[C@H](CCCCN)NC(=O)[C@H](CC(=O)O)NC(=O)[C@H](CC(N)=O)NC(=O)[C@H](CC(=O)O)NC(=O)[C@@H]2CCCN2C1=O` [compound 9] (H-DCLGFMRKCIPDNDKCCRPNLVCSATHKWCKYVF-NH2; disulfide 2-17, 9-23, 16-30), the IC50 on hNav1.3 came out at 840 nM; at hNav1.7, 300 nM; on hNav1.5, 18800 nM.
